Results: US8268848B2, “Cyclopropane compound” (Eisai R&D Management Co., Ltd., priority 2010, dated 2012)
Where two headings read alike, the source gives them in different places.

Assays:
OX1 = molecular target: T1, OX1 (Homo sapiens, UniProt O43613); assay: Measurement of orexin receptor-binding ability ([125I]-OX-A, cell membranes, OX1); set-up: expressed in transfected cells; host or cells: CHO cells (membrane preparation)
T1 sequence (O43613 1-425): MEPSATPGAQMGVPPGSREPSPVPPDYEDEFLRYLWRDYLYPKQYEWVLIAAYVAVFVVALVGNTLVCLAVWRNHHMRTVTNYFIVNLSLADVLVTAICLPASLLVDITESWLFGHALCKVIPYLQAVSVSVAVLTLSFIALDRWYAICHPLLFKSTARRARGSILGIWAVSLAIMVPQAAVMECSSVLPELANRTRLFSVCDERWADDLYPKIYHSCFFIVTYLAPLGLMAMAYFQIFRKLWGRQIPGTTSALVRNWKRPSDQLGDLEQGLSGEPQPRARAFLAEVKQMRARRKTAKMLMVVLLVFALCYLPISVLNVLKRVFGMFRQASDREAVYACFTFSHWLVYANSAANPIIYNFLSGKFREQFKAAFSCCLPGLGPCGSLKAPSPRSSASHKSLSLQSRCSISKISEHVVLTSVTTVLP
Method: (§1) 1. Measurement of Orexin Receptor-Binding Ability
(§2) The assay was carried out using a 96-well Wheat Germ Agglutinin Flash Plate (PerkinElmer). The volume in a single assay well was 100 ul, and the composition of the reaction solution was as follows:
(§3) 25 mM HEPES (pH 7.5), 1 mM CaCl2, 4.5 mM MgCl2, 0.5% BSA (bovine serum albumin), 0.1% sodium azide, 0.05% Tween-20, and 0.2% DMSO.
(§4) Cell membranes were prepared from recombinant CHO cells that expressed OX2 or OX1. The cell membranes were used in an amount of 5 μg protein/assay. […] Finally, the radioactivity of each well was measured using a scintillation counter (TopCount, PerkinElmer).

OX2 = molecular target: T2, OX2 (Homo sapiens, UniProt O43614); assay: Measurement of orexin receptor-binding ability ([125I]-OX-A, cell membranes, OX2); set-up: expressed in transfected cells; host or cells: CHO cells (membrane preparation); settings: membranes of recombinant CHO cells expressing OX2, 0.2 nM [125I]-OX-A
T2 sequence (O43614 1-444): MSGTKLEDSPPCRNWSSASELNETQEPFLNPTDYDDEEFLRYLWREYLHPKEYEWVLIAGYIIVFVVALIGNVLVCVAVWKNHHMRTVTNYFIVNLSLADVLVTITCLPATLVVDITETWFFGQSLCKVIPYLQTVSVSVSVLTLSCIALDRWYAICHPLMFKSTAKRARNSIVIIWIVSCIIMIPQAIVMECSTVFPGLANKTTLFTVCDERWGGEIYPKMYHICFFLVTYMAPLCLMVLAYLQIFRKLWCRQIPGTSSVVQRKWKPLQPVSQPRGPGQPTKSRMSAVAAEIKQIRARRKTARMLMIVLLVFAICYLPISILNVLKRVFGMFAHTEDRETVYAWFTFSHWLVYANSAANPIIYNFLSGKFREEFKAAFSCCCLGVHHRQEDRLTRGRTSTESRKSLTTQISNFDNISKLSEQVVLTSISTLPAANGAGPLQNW
Method: as §1, §2, §3, §4

[1] = membranes of recombinant CHO cells expressing OX1, 0.2 nM [125I]-OX-A, read-out: OX1 (IC50)

SMILES	IC50 (OX1; [1]) [nM]	IC50 (OX2; read-out: OX2 (IC50)) [nM]	IC50 (OX1) [nM]	IC50 (OX2; OX2 (IC50) nM) [nM]
Cc1ncc(OC[C@@]2(c3ccccc3)C[C@H]2C(=O)Nc2ccc(F)c(Cl)c2)c(C)n1 [Example 32, (1R,2S)-N-(3-chloro-4-fluorophenyl)-2-{[(2,4-dimethylpyrimidin-5-yl)oxy]methyl}-2-phenylcyclopropanecarboxamide]	15	3.5		
Cc1ncc(OC[C@@]2(c3cccs3)C[C@H]2C(=O)Nc2ccc(F)cn2)c(C)n1 [Example 268]			164	36
Cc1ncc(OC[C@@]2(c3ccccc3)C[C@H]2C(=O)Nc2ncc(C)s2)c(C)n1 [Example 2]	296	19		
Cc1ncc(OCC2(c3cccc(C(F)(F)F)c3)CC2C(=O)Nc2ccc(Cl)cn2)c(C)n1 (stereo not drawn) [Example 265]			43	10
CCc1nc(C)ncc1OC[C@@]1(c2cccc(F)c2)C[C@H]1C(=O)Nc1cc(C)c(F)cn1 [Example 244, (1R,2S)-2-{[(4-ethyl-2-methylpyrimidin-5-yl)oxy]methyl}-N-(5-fluoro-4-methylpyridin-2-yl)-2-(3-fluorophenyl)cyclopropanecarboxamide]	3	5.3		
Cc1ncc(OCC2(c3ccc(Cl)cc3)CC2C(=O)Nc2ccc(C#N)cn2)c(C)n1 (stereo not drawn) [Example 159]	624	62		
CCc1nc(C)ncc1OC[C@@]1(c2ccc(F)cc2)C[C@H]1C(=O)Nc1cc(Cl)ccn1 [Example 247, (1R,2S)-N-(4-chloropyridin-2-yl)-2-{[(4-ethyl-2-methylpyrimidin-5-yl)oxy]methyl}-2-(4-fluorophenyl)cyclopropanecarboxamide]	22	3		
CCc1ncc(OC[C@@]2(c3ccccc3)C[C@H]2C(=O)Nc2ccc(Cl)cn2)c(C)n1 [Example 128, (1R,2S)-N-(5-chloropyridin-2-yl)-2-{[(2-ethyl-4-methylpyrimidin-5-yl)oxy]methyl}-2-phenylcyclopropanecarboxamide]	231	75		
Cc1ncc(OC[C@@]2(c3cccs3)C[C@H]2C(=O)Nc2ccc(Cl)cn2)c(C)n1 [Example 267]	118	64		
Cc1ncc(OC[C@@]2(c3cc(F)cc(F)c3)C[C@H]2c2nc3ncc(F)cc3[nH]2)c(C)n1 [Example 306, 2-{(1R,2S)-2-(3,5-difluorophenyl)-2-{[(2,4-dimethylpyrimidin-5-yl)oxy]methyl}cyclopropyl}-6-fluoro-1H-imidazo[4,5-b]pyridine]	15	8		
COCc1nc(C)ncc1OC[C@@]1(c2ccc(F)c(F)c2)C[C@H]1C(=O)Nc1ccc(F)cc1 [Example 213]	14	11		
Cc1ncc(OC[C@@]2(c3ccccc3)C[C@H]2C(=O)Nc2ccccc2F)c(C)n1 [Example 78]			662	94
O=C(Nc1ccc(F)cn1)[C@@H]1C[C@@]1(COc1c[nH]c(=O)nc1C(F)(F)F)c1cc(F)cc(F)c1 [Example 291, (1R,2S)-2-(3,5-difluorophenyl)-N-(5-fluoropyridin-2-yl)-2-{[(2-oxo-4-trifluoromethyl-1,2-dihydropyrimidin-5-yl)oxy]methyl}cyclopropanecarboxamide]	> 200	49		
COCc1nc(C)ncc1OC[C@@]1(c2cccc(F)c2)C[C@H]1C(=O)Nc1ccc(F)c(F)c1 [Example 194, (1R,2S)-N-(3,4-difluorophenyl)-2-(3-fluorophenyl)-2-{[(4-methoxymethyl-2-methylpyrimidin-5-yl)oxy]methyl}cyclopropanecarboxamide]	7	3		
COCc1ccnc(NC(=O)[C@@H]2C[C@@]2(COc2cnc(C)nc2C)c2ccccc2)c1 [Example 14]	302	16		
COCc1nc(C)ncc1OC[C@@]1(c2ccccc2)C[C@H]1C(=O)Nc1nc(C)cs1 [Example 142]	331	36		
Cc1ncc(OC[C@@]2(c3cccc(F)c3)C[C@H]2C(=O)Nc2cc(Cl)ccn2)c(C)n1 [Example 85, (1R,2S)-N-(4-chloropyridin-2-yl)-2-{[(2,4-dimethylpyrimidin-5-yl)oxy]methyl}-2-(3-fluorophenyl)cyclopropanecarboxamide]			4	5

SMILES	IC50 (OX1; [1]) [nM]	IC50 (OX2; read-out: OX2 (IC50)) [nM]	IC50 (OX1) [nM]	IC50 (OX2; OX2 (IC50) nM) [nM]
Cc1ncc(OC[C@@]2(c3ccccc3)C[C@H]2C(=O)Nc2ccnc(F)c2)c(C)n1 [Example 18]	344	33		
COCc1nc(C)ncc1OC[C@@]1(c2ccc(F)c(F)c2)C[C@H]1C(=O)Nc1cc(C)c(F)cn1 [Example 212, (1R,2S)-2-(3,4-difluorophenyl)-N-(5-fluoro-4-methylpyridin-2-yl)-2-{[(4-methoxymethyl-2-methylpyrimidin-5-yl)oxy]methyl}cyclopropanecarboxamide]	4	7		
Cc1ncc(OCC2(c3cccc(F)c3F)CC2C(=O)Nc2ccc(F)cn2)c(C)n1 (stereo not drawn) [Example 162, 2-(2,3-difluorophenyl)-2-{[(2,4-dimethylpyrimidin-5-yl)oxy]methyl}-N-(5-fluoropyridin-2-yl)cyclopropanecarboxamide]			65	13
Cc1ncc(OC[C@@]2(c3ccccc3)C[C@H]2C(=O)Nc2cc(C(F)F)ccn2)c(C)n1 [Example 15]			213	41
Cc1ncc(OCC2(c3cc(F)ccc3F)CC2C(=O)Nc2ccc(F)cn2)c(C)n1 (stereo not drawn) [Example 163, 2-(2,5-difluorophenyl)-2-{[(2,4-dimethylpyrimidin-5-yl)oxy]methyl}-N-(5-fluoropyridin-2-yl)cyclopropanecarboxamide]			< 20	10
COc1cc(NC(=O)[C@@H]2C[C@@]2(COc2cnc(C)nc2C)c2ccccc2)ccn1 [Example 72]	202	31		
Cc1ncc(OC[C@@]2(c3ccc(F)cc3)C[C@H]2C(=O)Nc2cc(C)c(F)cn2)c(C)n1 [Example 111, (1R,2S)-2-{[(2,4-dimethylpyrimidin-5-yl)oxy]methyl}-N-(5-fluoro-4-methylpyridin-2-yl)-2-(4-fluorophenyl)cyclopropanecarboxamide]	34	6		
Cc1ccc(C2(COc3cnc(C)nc3C)CC2C(=O)Nc2ccc(F)cn2)cc1 (stereo not drawn) [Example 174]			33	55
CCc1nc(C)ncc1OC[C@@]1(c2ccccc2)C[C@H]1C(=O)Nc1ccc(F)cc1 [Example 318]	135	11		
Cc1ncc(OC[C@@]2(c3ccc(F)c(F)c3)C[C@H]2C(=O)Nc2ccc(F)cc2F)c(C)n1 [Example 171]	43	11		
Cc1ncc(OCC2(c3ccccc3Cl)CC2C(=O)Nc2ccc(C#N)cn2)c(C)n1 (stereo not drawn) [Example 153]			447	32
COCc1cc(NC(=O)[C@@H]2C[C@@]2(COc2cnc(C)nc2C)c2ccccc2)ncc1F [Example 71, (1R,2S)-2-{[(2,4-dimethylpyrimidin-5-yl)oxy]methyl}-N-[5-fluoro-4-(methoxymethyl)pyridin-2-yl]-2-phenylcyclopropanecarboxamide]	52	5.1		
Cc1ncc(OC[C@@]2(c3cccc(F)c3)C[C@H]2c2nc3ccccc3c(=O)[nH]2)c(C)n1 [Example 310]	40	13		
COCc1nc(C)ncc1OC[C@@]1(c2cc(F)cc(F)c2)C[C@H]1C(=O)Nc1ccc(F)c(F)c1 [Example 221, (1R,2S)-N-(3,4-difluorophenyl)-2-(3,5-difluorophenyl)-2-{[(4-methoxymethyl-2-methylpyrimidin-5-yl)oxy]methyl}cyclopropanecarboxamide]	< 2	3		
Cc1ncc(OC[C@@]2(c3ccccc3)C[C@H]2C(=O)Nc2cccc(CCO)c2)c(C)n1 [Example 40]	172	9		
Cc1ncc(OCC2(c3ccc(F)cc3)CC2C(=O)Nc2ccc(C#N)cn2)c(C)n1 (stereo not drawn) [Example 101]	290	84		
